Measured values: ChEMBL document CHEMBL1130652, “Design, synthesis and biological activity of a pyrrolo [2,1-c][1,4]benzodiazepine (PBD)-distamycin hybrid” (Bioorg Med Chem Lett, 1998)

Tests used:
Nucleic Acid = experiment: Inhibition of human estrogen receptor(ER) polymerase-chain reaction product; assay type: functional
K562 = experiment: In vitro effect on human leukemia K562 cell proliferation; assay type: functional, cell-based

IC50 (Nucleic Acid) [µM]	IC50 (K562) [µM]	Structure (SMILES)
50	1	COC(=O)CCOc1cc2c(cc1OC)C(=O)N1CCC[C@H]1C=N2.Cn1cc(NC(=O)c2cc(NC(=O)c3cc(NC=O)cn3C)cn2C)cc1C(=O)NCCC(=N)N
8	0.2	COc1cc2c(cc1OCCC(=O)Nc1cc(C(=O)Nc3cc(C(=O)Nc4cc(C(=O)NCCC(=N)N)n(C)c4)n(C)c3)n(C)c1)N=C[C@@H]1CCCN1C2=O
> 300	1	COC(=O)CCOc1cc2c(cc1OC)C(=O)N1CCC[C@H]1C=N2
50	5	Cn1cc(NC(=O)c2cc(NC(=O)c3cc(NC=O)cn3C)cn2C)cc1C(=O)NCCC(=N)N [STALLIMYCIN]
